Source: ChEMBL document CHEMBL1221277, “Design, synthesis and anticholinesterase activity of a novel series of 1-benzyl-4-((6-alkoxy-3-oxobenzofuran-2(3H)-ylidene) methyl) pyridinium derivatives” (Bioorg Med Chem, 2010)

Target: Acetylcholinesterase (Electrophorus electricus, UniProt O42275)
Assay: Inhibition of electric eel AChE by Ellman's method

Chain of Acetylcholinesterase (O42275 whole entry): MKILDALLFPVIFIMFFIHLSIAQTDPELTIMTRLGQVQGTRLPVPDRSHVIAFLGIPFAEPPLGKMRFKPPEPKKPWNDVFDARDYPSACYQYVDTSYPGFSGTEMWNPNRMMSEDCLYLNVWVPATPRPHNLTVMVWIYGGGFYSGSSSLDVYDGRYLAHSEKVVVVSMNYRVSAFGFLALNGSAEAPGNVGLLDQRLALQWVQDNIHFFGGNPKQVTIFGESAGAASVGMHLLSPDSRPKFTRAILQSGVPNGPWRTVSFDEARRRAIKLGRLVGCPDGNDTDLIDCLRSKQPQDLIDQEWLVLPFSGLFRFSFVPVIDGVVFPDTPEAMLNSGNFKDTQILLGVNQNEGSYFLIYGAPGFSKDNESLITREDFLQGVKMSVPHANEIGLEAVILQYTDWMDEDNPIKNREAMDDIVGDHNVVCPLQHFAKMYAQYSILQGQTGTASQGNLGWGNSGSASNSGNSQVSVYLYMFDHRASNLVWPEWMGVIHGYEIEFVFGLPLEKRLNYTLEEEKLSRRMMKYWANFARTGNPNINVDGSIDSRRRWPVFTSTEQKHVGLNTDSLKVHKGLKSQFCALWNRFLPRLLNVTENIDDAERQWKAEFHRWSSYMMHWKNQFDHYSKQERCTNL

| Structure (SMILES) | IC50 [nM] |
| --- | --- |
| CCCOc1ccc2c(c1)O/C(=C\c1cc[n+](Cc3ccc(C)cc3)cc1)C2=O | 612 |
| CCOc1ccc2c(c1)O/C(=C\c1cc[n+](Cc3ccc(C)cc3)cc1)C2=O | 790 |
| CCCOc1ccc2c(c1)O/C(=C\c1cc[n+](Cc3ccccc3)cc1)C2=O | 80 |
| CCCOc1ccc2c(c1)O/C(=C\c1cc[n+](Cc3ccccc3F)cc1)C2=O | 50 |
| CCCOc1ccc2c(c1)O/C(=C\c1cc[n+](Cc3cccc(F)c3)cc1)C2=O | 107 |
| CCCOc1ccc2c(c1)O/C(=C\c1cc[n+](Cc3ccc(F)cc3)cc1)C2=O | 68 |
| CCCOc1ccc2c(c1)O/C(=C\c1cc[n+](Cc3ccccc3C)cc1)C2=O | 328 |
| CCCOc1ccc2c(c1)O/C(=C\c1cc[n+](Cc3cccc(C)c3)cc1)C2=O | 234 |
| COc1ccc2c(c1)O/C(=C\c1cc[n+](Cc3ccc(C)cc3)cc1)C2=O | 475 |
| CCOc1ccc2c(c1)O/C(=C\c1cc[n+](Cc3ccccc3)cc1)C2=O | 63 |
| CCOc1ccc2c(c1)O/C(=C\c1cc[n+](Cc3ccccc3F)cc1)C2=O | 32 |
| CCOc1ccc2c(c1)O/C(=C\c1cc[n+](Cc3cccc(F)c3)cc1)C2=O | 48 |
| CCOc1ccc2c(c1)O/C(=C\c1cc[n+](Cc3ccc(F)cc3)cc1)C2=O | 51 |
| CCOc1ccc2c(c1)O/C(=C\c1cc[n+](Cc3ccccc3C)cc1)C2=O | 546 |
| CCOc1ccc2c(c1)O/C(=C\c1cc[n+](Cc3cccc(C)c3)cc1)C2=O | 399 |
| COc1ccc2c(c1)O/C(=C\c1cc[n+](Cc3ccccc3)cc1)C2=O | 41 |
| COc1ccc2c(c1)O/C(=C\c1cc[n+](Cc3ccccc3F)cc1)C2=O | 10 |
| COc1ccc2c(c1)O/C(=C\c1cc[n+](Cc3cccc(F)c3)cc1)C2=O | 60 |
| COc1ccc2c(c1)O/C(=C\c1cc[n+](Cc3ccc(F)cc3)cc1)C2=O | 22 |
| COc1ccc2c(c1)O/C(=C\c1cc[n+](Cc3ccccc3C)cc1)C2=O | 68 |
| COc1ccc2c(c1)O/C(=C\c1cc[n+](Cc3cccc(C)c3)cc1)C2=O | 123 |
